In publication PMC6383986, “Fragment-Based Covalent Ligand Screening Enables Rapid Discovery of Inhibitors for the RBR E3 Ubiquitin Ligase HOIP” (Journal of the American Chemical Society, 2019):

Molecular target: T1, HOIP RBR R1032A mutant (Homo sapiens, UniProt Q96EP0, R1032A)
T1 construct: 697-1072; made in house; host or cells: E. coli BL21-GOLD(DE3)
Test: Protein LC-MS library screen, covalent labeling
Type: binding
Details: 20 μM compound, 2 μM protein, 24 h incubation
Procedure: 3.1 Experimental procedures
Acquisition of mass spectrometry data was carried out using positive electrospray ionisation (ESI) on an Agilent 6224 TOF LC-MS system equipped with a Diode Array Detector (DAD), a Wellplate sampler (held at 10 °C) and an Agilent PLRP-S reverse phase column (50 mm, 1 mm diameter, 5 µm particle size) held at 70 °C. The following mobile phases were used for the LC: Mobile phase A (MP A) = 0.2% Formic acid in water, v/v; Mobile phase B (MP B) = 0.2% Formic acid in MeCN, v/v. The following LC method was employed: 0-0.5 min (10→30% B in A, v/v), 0.5-5 min (30→55% […]
mL/min. Injection volume: 10 µL. The run length was 8 min, and equilibration time 1 min after each sample. […] Between 0.5 and 6 min the TOF mass spectrometer recorded 1 spectrum per second with a scan range between 700 and 2200 AMU. […]
thawed individually and analyzed by protein mass spectrometry as described above. The total ion counts (TICs) detected for unlabelled HOIP and labelled HOIP-(5) conjugate within a peak elution range of 10 seconds were used to calculate the ratio of labelled HOIP RBR over total HOIP RBR content for each sample. The averaged data from 3 independent experiments were analyzed according to a two-step model of reversible ligand binding followed by irreversible covalent […]

T1 sequence (Q96EP0 697-1072 R1032A): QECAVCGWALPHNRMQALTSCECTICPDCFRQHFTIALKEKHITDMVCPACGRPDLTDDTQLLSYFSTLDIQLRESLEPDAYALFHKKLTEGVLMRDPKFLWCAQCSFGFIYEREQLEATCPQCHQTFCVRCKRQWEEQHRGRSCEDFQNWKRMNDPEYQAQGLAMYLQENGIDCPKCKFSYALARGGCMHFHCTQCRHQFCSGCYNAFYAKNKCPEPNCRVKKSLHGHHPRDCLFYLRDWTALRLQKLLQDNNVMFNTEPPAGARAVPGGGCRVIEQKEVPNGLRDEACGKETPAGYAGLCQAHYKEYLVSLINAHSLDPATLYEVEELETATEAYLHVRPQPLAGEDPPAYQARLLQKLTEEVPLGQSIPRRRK

labeling of HOIP RBR R1032A: > 85%
Structure (SMILES): COC(=O)/C=C/CNC(=O)c1cc2c([nH]c1=O)CCC2 [Compound 5]
